Results taken from patent publication US11028078B2 (The Johns Hopkins University, priority 2011, dated 2021).

Key:
[1] = tested on: MB cultures derived from Ptch−/+; p53−/− mice; assay: Medulloblastoma (MB) proliferation assay; type: cell-based, mouse; conditions: mouse medulloblastoma cultures, 96 h; relative to itraconazole
Excerpt: These cultures were derived from Ptch^−/+; p53^−/− mice that spontaneously develop medulloblastoma associated with ligand independent Hh pathway activation.
MB cultures were derived from mouse Ptch^−/+; p53^−/− MB grown as hind-flank allografts in nude mice (Harlan). Briefly, tumors were mechanically disrupted and made into single cell suspensions by two passages through a 70 μm nylon filter. Cells were pelleted by centrifugation and resuspended in PBS pH 7.4 twice. The cell suspension was then subjected to centrifugation at 1000×g for 25 min over a ficoll gradient. The viable cell layer formed at the ficoll boundary was then collected, suspended in PBS, and pelleted by centrifugation. The resulting pellet was then suspended and cultured as “neurospheres” in Neurobasal Media-A supplemented with retinoic acid deficient B-27 extract (NBMedia). Cells were cultured for three passages, with neurospheres disaggregated using Accumax (Innovative Cell Technologies) between passages.
Cultured MB neurospheres were disaggregated as described and 1×10^4 cells were seeded into wells of a 96-well assay plate in NBMedia and exposed to multiple analogue concentrations: Relative cell numbers following a 96-h incubation were quantified by CellTiter 96® AQueous One Solution Cell Proliferation Assay (Promega) per manufacturer's recommendations using a SpectraMax M2e spectrophotometer and SoftMax Pro software (Molecular Devices). Data was analyzed using Prism5 (GraphPad Software) and IC50 and IC90 values were determined from dose-response curves fitted to mean corrected absorbance normalized to control treatment.

[2] = tested on: VEGFR2; assay: VEGFR2 glycosylation in HUVEC (Western blot scoring); type: cell-based, human; conditions: VEGFR2 hypoglycosylation score in HUVEC, 2 μM, 24 h
Protocol: VEGFR2 hypoglycosylation was scored either robust (++), intermediate (+), or absent (−) (FIG. 6).
HUVEC were seeded at 5×10^4 per well of a 6-well plate in 3 mL of media. After an overnight recovery, the media was replaced with 2 mL fresh media and the analogs were added from 200× stocks in DMSO. Following a 24-h incubation, the media was aspirated and 2×SDS sample buffer was added to the cells which were incubated on ice for 10 min and then boiled for 10 min. […] Following three washes in TBS-T, the membrane was incubated with anti-rabbit horseradish peroxidase conjugated IgG (GE Healthcare) (1:5000-1:10000 dilution) in 1% BSA in TBS-T. The membranes were washed three times in TBS-T, incubated for 1-5 minutes with ECL substrate (Immobilon Wester, Milipore) and visualized (Kodak Image Staion 440 CF).

[3] = tested on: HUVEC; assay: HUVEC proliferation assay ([3H]thymidine incorporation); type: cell-based, human; conditions: HUVEC; for Proliferation (IC50/IC50 Itra): IC50 of analog relative to IC50 of itraconazole; for Proliferation (EC50/IC50 Itra): footnote g: EC50 of analog relative to IC50 of itraconazole
Protocol: The activity of the analogs against HUVEC proliferation, an in vitro proxy for angiogenesis inhibition (Table 3) was analyzed. […]
Pooled HUVEC (Lonza) were grown in EGM-2 bullet kit media (Lonza) and used at passage eight or lower. The proliferation assays were conducted as previously described (Nacev, B.; Low, W. K.; Huang, Z.; Su, T.; Su, Z.; Alkuraya, H.; Kasuga, D.; Sun, W.; Trager, M.; Braun, M.; Fischer, G.; Zhang, K.; Liu, J. O., Acalcineurin-independent mechanism of angiogenesis inhibition by anon-immunosuppressive Cyclosporin Aanalog. J. Pharmacol. Exp. Ther. 2011, DOI:10.1124/jpet.111.18085).

[4] = tested on: Gli1 transcript; assay: Quantification of Gli1 transcript by TaqMan analysis in MB cells (Hh pathway); type: cell-based, mouse; conditions: Gli1 transcript fold induction score; MB cells exposed 24 h at the IC90 for MB proliferation
Excerpt: Inhibitors of the Hh pathway are known to inhibit MB cell proliferation. However, MB cell proliferation is also affected by drugs with targets other than Hh signaling.
Following drug exposure, cells were washed in PBS and pelleted by centrifugation at 300×g. Cell pellets were lysed in Trizol reagent (Invitrogen). Total RNA was separated and collected in the aqueous phase following centrifugation of lysate in the presence of chloroform. Total RNA was ethanol precipitated and purified over RNeasy Mini Kit (Qiagen) filter columns per manufacturer's recommendations. Transcript levels were quantified using gene-specific TaqMan primer/probe sets and the StepOne Plus Real-Time PCR system (Applied Biosystems) on cDNA reverse transcribed using the QuantiTect Reverse Transcription Kit (Qiagen) per manufacturers' recommendations. Results were quantified using StepOne Plus software v2.1 (Applied Biosystems) and were expressed as fold induction relative to control samples using the A ΔCt (2^−ΔΔCt) method with actin as an internal control. The primer/probe set (Applied Biosystems) for TaqMan PCR for mouse Gli-1 was Mm00494645_m1, and for mouse actin was Mm00607939_s1.

Row | SMILES | MB Proliferation (IC50/IC50 Itra) [1] | Glycosylation (2 μM dose) [2] | Proliferation (IC50/IC50 Itra) [3] | Gli I Inhibition (IC90 Prolif. dose) [4] | Proliferation (EC50/IC50 Itra) [3]
1 | CCCCCn1ncn(-c2ccc(N3CCN(c4ccc(OCC5COC(Cn6cncn6)(c6ccc(Cl)cc6Cl)O5)cc4)CC3)cc2)c1=O [Compound 7g, cis-(2S,4R)-4-[4-[4-[4-[[2-(2,4-Dichlorophenyl)-2-(1H-1,2,4-triazol-1-ylmethyl)-1,3-dioxolan-4-yl]methoxy]phenyl]-lpiperazinyl]phenyl]-2,4-dihydro-2-pentyl-3H-1,2,4-triazol-3-one] | 0.66 | − | 1.09 | ++ (≤0.15) | 
2 | CCCCCCCCn1ncn(-c2ccc(N3CCN(c4ccc(OCC5COC(Cn6cncn6)(c6ccc(Cl)cc6Cl)O5)cc4)CC3)cc2)c1=O [Compound 7m, cis-(2S,4R)-4-[4-[4-[4-[[2-(2,4-Dichlorophenyl)-2-(1H-1,2,4-triazol-1-ylmethyl)-1,3-dioxolan-4-yl]methoxy]phenyl]-piperazinyl]phenyl]-2,4-dihydro-2-(n-octyl)-3H-1,2,4-triazol-3-one] | 0.67 | − |  | ++ (≤0.15) | 2.24^g
3 | CCCC(C)n1ncn(-c2ccc(N3CCN(c4ccc(OC[C@@H]5CO[C@@](Cn6cncn6)(c6ccc(Cl)cc6Cl)O5)cc4)CC3)cc2)c1=O (relative stereo) [Compound 7h, cis-(2S,4R)-4-[4-[4-[4-[[2-(2,4-Dichlorophenyl)-2-(1H-1,2,4-triazol-1-ylmethyl)-1,3-dioxolan-4-yl]methoxy]phenyl]-lpiperazinyl]phenyl]-2,4-dihydro-2-(1-methylbutyl)-3H-1,2,4-triazol-3-one] | 0.38 | ++ | 0.75 | ++ (≤0.15) | 
4 | CCC#CCCn1ncn(-c2ccc(N3CCN(c4ccc(OCC5COC(Cn6cncn6)(c6ccc(Cl)cc6Cl)O5)cc4)CC3)cc2)c1=O [Compound 7o, cis-(2S,4R)-4-[4-[4-[4-[[2-(2,4-Dichlorophenyl)-2-(1H-1,2,4-triazol-1-ylmethyl)-1,3-dioxolan-4-yl]methoxy]phenyl]-lpiperazinyl]phenyl]-2,4-dihydro-2-(hex-3-ynyl)-3H-1,2,4-triazol-3-one] | 1.07 | − | 1.09 | ++ (≤0.15) | 
5 | CCC1(Cn2ncn(-c3ccc(N4CCN(c5ccc(OCC6COC(Cn7cncn7)(c7ccc(Cl)cc7Cl)O6)cc5)CC4)cc3)c2=O)COC1 [Compound 7v, cis-(2S,4R)-4-[4-[4-[4-[[2-(2,4-Dichlorophenyl)-2-(1H-1,2,4-triazol-1-ylmethyl)-1,3-dioxolan-4-yl]methoxy]phenyl]-lpiperazinyl]phenyl]-2,4-dihydro-2-((3-ethyloxetan-3-yl)methyl)-3H-1,2,4-triazol-3-one] | 0.74 | ++ | 0.77 | + (0.16 to 0.44) | 
6 | O=c1n(-c2ccc(N3CCN(c4ccc(OCC5COC(Cn6cncn6)(c6ccc(Cl)cc6Cl)O5)cc4)CC3)cc2)cnn1CCCCCCc1ccccc1 [Compound 7n, cis-(2S,4R)-4-[4-[4-[4-[[2-(2,4-Dichlorophenyl)-2-(1H-1,2,4-triazol-1-ylmethyl)-1,3-dioxolan-4-yl]methoxy]phenyl]-lpiperazinyl]phenyl]-2,4-dihydro-2-(6-phenylhexyl)-3H-1,2,4-triazol-3-one] | 0.69 | − |  | ++ (≤0.15) | 1.45^g
7 | CC(C)n1ncn(-c2ccc(N3CCN(c4ccc(OC[C@@H]5CO[C@@](Cn6cncn6)(c6ccc(Cl)cc6Cl)O5)cc4)CC3)cc2)c1=O (relative stereo) [Compound 7d, cis-(2S,4R)-4-[4-[4-[4-[[2-(2,4-Dichlorophenyl)-2-(1H-1,2,4-triazol-1-ylmethyl)-1,3-dioxolan-4-yl]methoxy]phenyl]-lpiperazinyl]phenyl]-2,4-dihydro-2-isopropyl-3H-1,2,4-triazol-3-one] | 1.06 | − | 2.18 | − (≥0.45) | 
8 | O=c1n(-c2ccc(N3CCN(c4ccc(OCC5COC(Cn6cncn6)(c6ccc(Cl)cc6Cl)O5)cc4)CC3)cc2)cnn1C1CCCCC1 [Compound 7k, cis-(2S,4R)-4-[4-[4-[4-[[2-(2,4-Dichlorophenyl)-2-(1H-1,2,4-triazol-1-ylmethyl)-1.3-dioxolan-4-yl]methoxy]phenyl]-lpiperazinyl]phenyl]-2,4-dihydro-2-(1-cyclohexyl)-3H-1,2,4-triazol-3-one] | 0.37 | ++ | 0.44 | − (≥0.45) | 
9 | CC/C=C/CCn1ncn(-c2ccc(N3CCN(c4ccc(OCC5COC(Cn6cncn6)(c6ccc(Cl)cc6Cl)O5)cc4)CC3)cc2)c1=O [Compound 7s, cis-(2S,4R)-4-[4-[4-[4-[[2-(2,4-Dichlorophenyl)-2-(1H-1,2,4-triazol-1-ylmethyl)-1,3-dioxolan-4-yl]methoxy]phenyl]-lpiperazinyl]phenyl]-2,4-dihydro-2-((E)-hex-3-enyl)-3H-1,2,4-triazol-3-one] | 0.63 | − | 1.57 | ++ (≤0.15) | 
10 | CC1(CCn2ncn(-c3ccc(N4CCN(c5ccc(OCC6COC(Cn7cncn7)(c7ccc(Cl)cc7Cl)O6)cc5)CC4)cc3)c2=O)N=N1 [Compound 7w, cis-(2S,4R)-4-[4-[4-[4-[[2-(2,4-Dichlorophenyl)-2-(1H-1,2,4-triazol-1-ylmethyl)-1,3-dioxolan-4-yl]methoxy]phenyl]-lpiperazinyl]phenyl]-2,4-dihydro-2-(2-(3-methyl-3H-diazirin-3-yl)ethyl)-3H-1,2,4-triazol-3-one] | 1.32 | + | >13.8 | + (0.16 to 0.44) | 
